Assay results as given in US20100146643A1, “RAPID IN VIVO MODEL FOR ANGIOGENESIS” (ANTICANCER, INC, priority 2006, published 2010).

How the values were obtained:
[1] = system: nascent blood vessels in bFGF-containing Gelfoam; assay: Gelfoam subcutaneous implant angiogenesis model in ND-GFP transgenic nude mice; assay type: in vivo, mouse
Protocol: Transgenic C57/B6 nude mice that produce green fluorescent protein (GFP) in endothelial cells were used. These transgenic mice (6-8 weeks old) were anesthetized with tribromoethanol. Gelfoam® (Pharmacia & Upjohn company, Kalamazoo, Mich.) blocks (5×5 mm) were either treated with 300 ng basic fibroblast growth factor (bFGF) (Chemicon, Temecula, Calif.) in 75 μl RPMI 1640 medium (Cellgro, Herndon, Va.) or not treated. The Gelfoam® blocks were transplanted into the subcutis on both flanks of the transgenic mice, a treated block on one flank and an untreated block on the other. One group of mice was given daily ip injections of 5 μg/g of doxorubicin and another group was given 0.9% NaCl solution (vehicle control) at days 0, 1, and 2 after transplantation of Gelfoam®. Skin flaps were made at day 7 under anesthesia. Angiogenesis was quantified by measuring the length of fluorescent nascent blood vessels in the skin flap by in vivo fluorescence microscopy imaging.
A Leica fluorescence stereo microscope model LZ12 equipped with a mercury lamp and a 50-W power supply was used. Selective excitation of GFP was produced through a D425/60 band-pass filter and a 470 DCXR dichroic mirror. Emitted fluorescence was collected through a long-pass filter (GG475; Chroma Technology, Brattleboro, Vt.) on a Hamamatsu C5810 3-chip cooled color charge-coupled device camera (Hamamatsu Photonics, Bridgewater, N.J.). Images were processed for contrast and brightness and analyzed with the use of IMAGE PRO PLUS 3.1 software (Media Cybernetics, Silver Spring, Md.). High-resolution images of 1024×724 pixels were captured directly on an IBM PC or continuously through video output on a high-resolution Sony VCR (model SLVR1000; Sony, Tokyo).
The experimental data are expressed as the mean ±SD. Statistical analysis was performed using the two-tailed Student's t test.

[2] = system: XPA-1-RFP human pancreatic cancer; conditions: liver metastasis of XPA-1-RFP, ND-GFP transgenic nude mice; cited from earlier work
[3] = system: MIA PaCa-2 human pancreatic cancer; conditions: orthotopically transplanted MIA PaCa-2-RFP, ND-GFP transgenic nude mice; cited from earlier work
[4] = system: B16F10-RFP murine melanoma; conditions: ND-GFP mice transplanted with B16F10-RFP; cited from earlier work
[5] = Gelfoam containing 300 ng bFGF, mice given 0.9% NaCl, day 7

**Q.** Which results are given for “bFGF: basic fibroblast growth factor (Chemicon), growth factor loaded in Gelfoam to encourage angiogenesis”?
**A.** mean nascent blood vessel length [1, 5]: ~6 mm/mm^2; neovasculature formed in the bFGF-containing Gelfoam patch (FIG. 2a) [1, 5]: a large complex of neovasculature is formed

**Q.** For `Nc1ccn([C@@H]2O[C@H](CO)[C@@H](O)C2(F)F)c(=O)n1` [Gemcitabine], which “mean nascent blood vessel density in the liver metastases” value [2] is on record?
**A.** The value was “significantly decreased”.

**Q.** And the “mean nascent blood vessel density in the tumor” value [3]?
**A.** The value was “significantly decreased”.

**Q.** What about the tumor volume [3] of the same compound?
**A.** Its tumor volume is “decreased tumor volume”.

**Q.** Which results are given for `COc1cccc2c1C(=O)c1c(O)c3c(c(O)c1C2=O)C[C@@](O)(C(=O)CO)C[C@@H]3O[C@H]1C[C@H](N)[C@H](O)[C@H](C)O1` [doxorubicin]?
**A.** nascent tumor angiogenesis [4]: inhibit nascent tumor angiogenesis; tumor growth [4]: inhibit; extent of angiogenesis (mean nascent blood vessel length, FIG. 4) in bFGF-treated Gelfoam ([1]; doxorubicin 5 μg/g ip at days 0, 1, 2, day 7, compared with untreated Gelfoam in NaCl-treated mice): reduced below that of untreated Gelfoam® in the sodium chloride treated mice; neovasculature in the bFGF-treated foam (FIG. 2c) ([1]; doxorubicin 5 μg/g ip at days 0, 1, 2, skin flap at day 7, Gelfoam with 300 ng bFGF): greatly diminished neovasculature; angiogenesis in the foam not containing bFGF (FIG. 2d) ([1]; doxorubicin 5 μg/g ip at days 0, 1, 2, skin flap at day 7, Gelfoam without bFGF): no observable angiogenesis
